The values below are quoted from earlier work in US20220296511A1, “COMPOSITIONS FOR DELIVERY OF DRUG COMBINATIONS TO TREAT LUNG DISEASE” (BOARD OF REGENTS, THE UNIVERSITY OF TEXAS SYSTEM, priority 2021, published 2022).

Broadly, the half-life is how long it takes for the measured level to halve.

Like-named read-outs stand apart in the source and are kept apart here.

The conditions of data set [1]: 150 mg oral dose.
For data set [2] the following is noted: phase 3 trial.
Assay in data set [3]: not given
The source holds these as a separate data set.

Assay in data set [4]: not given
This is another data set of the same source.

The conditions of data set [5]: rats, 50 mg/mL MFF suspension for nebulization.

With `COC(=O)c1ccc2c(c1)NC(=O)/C2=C(\Nc1ccc(N(C)C(=O)CN2CCN(C)CC2)cc1)c1ccccc1` [nintedanib], in data set [1], the half-life was 9.49 h and the plasma concentration is given as 0.12 ng/mL/mg. In addition, the diarrhea reported in data set [2] (most common adverse reaction) is on record as 66.9%. For the same molecule, the “reduction of FVC” value in data set [2] (nintedanib group) is −80.0 mL per year.

Take `Cc1ccc(=O)n(-c2ccccc2)c1` [pirfenidone]: the plasma concentration (801 mg oral dose) is 5000 ng/mL. Besides, the lung concentration (801 mg oral dose, worked out from plasma concentration) is 0.7 µg/g. Further, under “IV dose 40 mg/kg”, the “lung tissue concentration as percentage of plasma concentration” value is “nine”. For the setting “oral”, the “pirfenidone decreased by food” value is reported as 50%. Also, in data set [3] (100 mg aerosol pirfenidone), the “aerosol epithelial lining fluid (ELF) concentration relative to 801 mg oral” value is 35 times. Also, in data set [3] (100 mg inhalation dose), the “systemic exposure less than the oral delivery” value is listed as 15 fold.

Regarding `COc1c(C)c2c(c(O)c1C/C=C(\C)CCC(=O)O)C(=O)OC2` [mycophenolic acid], the therapeutic range in data set [4] (in vivo) is 1.0 to 3.5 µg/mL. In data set [4] (oral), the “maximum plasma concentration decreased by food” value is on record as 40%. The “lung concentration of mycophenolic acid as % of serum concentration” value in data set [5] is roughly 30%.
